# Experimental data taken from patent US9993452B2, “Compositions and methods for treatment of inflammation” (Vireo Systems, Inc., priority 2014, dated 2018).
# Experiments:
# TNF-α mRNA [1] = test: TNF-α mRNA expression in mouse macrophage cell line RAW 264.7 (real-time RT-PCR); assay type: cell-based
# Experimental: (§1) The mouse macrophage cell line, RAW 264.7 (American Tissue Type Culture Collection (ATCC); Manassas, Va.), was cultured in Dulbucco's modified Eagle's medium (DMEM; ATCC) supplemented with 10% heat inactivated fetal calf serum […] (Invitrogen; Carlsbad, Calif.), 100 μg/ml streptomycin and 100 U/ml penicillin (Invitrogen), and 2 mM L-glutamine (Invitrogen). The human T cell line, Jurkat clone E6-1 (ATCC) was cultured in RPMI-1640 medium (Invitrogen) supplemented as described above. The human monocyte cell line, THP-1 (ATCC) was cultured much like the Jurkat cultures plus the addition of 1 mM sodium pyruvate (Gibco-Invitrogen). THP-1 cells were stimulated with 200 nM of phorbol 12-myristate 13-acetate (PMA; Sigma-Aldrich, St. Louis, Mo.) for 48 hours to differentiate the cells into macrophage-like cells. Cells were then washed three times every 24 hours with fresh medium.
# (§2) Dose response experiments were performed following exposure of the RAW 264.7, Jurkat, and THP-1 cells to varying doses of creatinine HCl ([…]; Sigma-Aldrich). Control cultures contained no creatinine HCl, only growth medium. A dose of 10 mM creatinine HCl was chosen for use in these studies. The 10 mM concentration is physiologically relevant to individuals supplementing with 5 grams of creatine for their regimen and then converted into creatinine.
# (§3) RAW, Jurkat, and THP-1 cells were treated in 6-well plates at 80-90% confluent (4.14×10^6 cells/ml, 2.6×10^7 cells/ml, and 5.26×10^5 cells/ml, respectively). All cells were lysed in 1 ml of Trizol (Invitrogen). After homogenization, chloroform was added to samples and nucleic acids extracted per the manufacturer's instructions. Nucleic acids were precipitated with isopropyl alcohol (Fisher, Pittsburgh, Pa.). Following centrifugation, the resulting pellets were washed with 75% ethanol and air dried. RNA was re-suspended in 50 μl of UltraPure distilled water (Invitrogen). Residual DNA was removed from the samples by treatment with RQ1 DNase (Promega, Madison, Wis.) at 37° C. for 1 hour per the manufacturer's protocol. Samples were extracted with phenol:chloroform:[…] alcohol (25:24:1) (Invitrogen) and the RNA was precipitated with 1/10 volume of 3M sodium acetate (pH=5.2) and 3 volumes of 100% ethanol. Samples were frozen at […] for a minimum of 2 hours. After centrifugation, the samples were washed with 75% ethanol, air dried, and resuspended in 20 μl of UltraPure distilled water (Invitrogen) and stored at −80° C. until time of use, RNA was quantified using a NanoDrop-1000 Spectrophotometer with the program ND-1000 V3.8.1 (Thermo Fisher Scientific, Wilmington, Del.).
# (§4) Reverse transcription (Improm-II Reverse Transcription System, Promega) followed by real-time PCR analysis was performed in 20 μL volumes containing 1 μl of cDNA corresponding to 40 ng of DNase-treated RNA in the RT reaction, gene specific internal primers (0.5 μM of each primer), and 1× SsoFast EvaGreen Supermix (Bio-Rad, Hercules, Calif.). The primers were synthesized by Integrated DNA Technologies (IDT, Coralville, Iowa) and have 100% sequence homology to the […] or human genome. The primer sequences are listed below in Table 1.
# (§5) The PCR was performed using the following conditions: 95° C. for 30 sec, 40 cycles of 95° C. for 5 sec, and 57° C. for 5 sec using a CFX96 Real-Time Detection System (Bio-Rad), GAPDH was used as a housekeeping gene to normalize mRNA levels between samples. Data was analyzed using the Bio-Rad CFX Manager V1.6.541.1028 software (Bio-Rad). The calibrator in the experiments was the sample obtained from control-treated cells. Copy numbers of targeted mRNAs were expressed as ratios of GAPDH mRNA levels. Relative quantitation was determined by the comparative CT method (ΔΔCT method) in which the formula is expressed as: 2^−ΔΔCT(1).
# (§6) RT-PCR data was analyzed by two-way analysis of variance (ANOVA) with a Bonferroni's post-test. P values≤0.05 were considered statistically significant. […]
# TNF-α mRNA [2] = test: TNF-α mRNA expression in human macrophage cell line THP-1 (real-time RT-PCR); assay type: cell-based
# Experimental: as §1, §2
# RAW, Jurkat, and THP-1 cells were treated in 6-well plates at 80-90% confluent (4.14×10^6 cells/ml, 2.6×10^7 cells/ml, and 5.26×10^5 cells/ml, respectively). All cells were lysed in 1 ml of Trizol (Invitrogen). After homogenization, chloroform was added to samples and nucleic acids extracted per the manufacturer's instructions. Nucleic acids were precipitated with isopropyl alcohol (Fisher, Pittsburgh, Pa.). Following centrifugation, the resulting pellets were washed with 75% ethanol and air dried. […] After centrifugation, the samples were washed with 75% ethanol, air dried, and resuspended in 20 μl of UltraPure distilled water (Invitrogen) and stored at −80° C. until time of use, RNA was quantified using a NanoDrop-1000 Spectrophotometer with the program ND-1000 V3.8.1 (Thermo Fisher Scientific, Wilmington, Del.). […]
# as §5, with “The calibrator in the experiments was the sample obtained from control-treated cells.” left out
# RT-PCR data was analyzed by two-way analysis of variance (ANOVA) with a Bonferroni's post-test. […]
# TNF-α mRNA [3] = test: TNF-α mRNA expression in human T cell line Jurkat clone E6-1 (real-time RT-PCR); assay type: cell-based
# Experimental: as §1, §2, §3, §4, §5, §6
# TNF-α protein = test: Immunohistochemical staining of TNF-α protein expression in mouse macrophage cells (RAW 264.7); assay type: cell-based; conditions: 10 mM
# Experimental: as §1
# RAW cells were incubated with or without 10 mM creatinine (Sigma-Aldrich) for 24 or 48 hours. Staining was performed on cytospins which were fixed in cold acetone, air-dried, and rehydrated in phosphate buffered saline (PBS). Blocking was performed at room temperature for 20 minutes, followed by incubation with purified rat anti-mouse TNF-α antibody (BD Biosciences, San Diego, Calif.) overnight. […]
# TLR-2 = conditions: mouse macrophages; cited from earlier work
# TLR-3 = conditions: mouse macrophages; cited from earlier work
# TLR-4 = conditions: mouse macrophages; cited from earlier work
# TLR-7 = conditions: mouse macrophages; cited from earlier work
# [4] = tested on: Gram negative and Gram positive bacteria; conditions: addition to a growth medium; cited from earlier work
# [5] = tested on: drug resistant Staphylococcus aureus (“MRSA”); conditions: addition to a growth medium; cited from earlier work
# [6] = tested on: vancomycin resistant Enterococcus faecium (“VRE”); conditions: addition to a growth medium; cited from earlier work
# fungi = conditions: cited from earlier work
# mouse macrophages = conditions: cited from earlier work
# [7] = rats, acute or chronic inflammation induced by inflammatory agents, different doses; cited from earlier work
compound,measurement,setting,value
"CN1CC(=O)N=C1N.Cl [creatinine HCl, creatinine hydrochloride]",TNF-α mRNA as compared to the control (100%),"TNF-α mRNA [1]; 10 mM, 10 minutes post-exposure, RAW 264.7",28%
same,TNF-α mRNA as compared to the control (100%),"TNF-α mRNA [1]; 10 mM, 20 minutes post-exposure, RAW 264.7",13%
same,TNF-α mRNA levels,"TNF-α mRNA [1]; 10 mM, 40 minutes post-exposure, RAW 264.7",began to increase
same,TNF-α mRNA as compared to the control (100%),"TNF-α mRNA [1]; 10 mM, 60 minutes post-exposure, RAW 264.7",47%
same,decrease of TNF-α mRNA expression in mouse macrophages,"TNF-α mRNA [1]; about 10 mM, about 10 minutes post-treatment",≥ 72%
same,reduction of TNF-α mRNA expression in mouse macrophages,"TNF-α mRNA [1]; about 10 mM, about 20 minutes post-treatment",≤ 87%
same,"TNF-α mRNA levels, of the control levels","TNF-α mRNA [2]; 10 mM, 10 minutes post-exposure, THP-1",41%
same,TNF-α mRNA levels,"TNF-α mRNA [2]; 10 mM, 20 minutes post-exposure, THP-1",remained below those of control-treated cells
same,"TNF-α mRNA levels, of the control levels","TNF-α mRNA [2]; 10 mM, 60 minutes post-exposure, THP-1",50%
same,"TNF-α mRNA levels, of the control level","TNF-α mRNA [3]; 10 mM, 20 minutes post-exposure, Jurkat",25%
same,TNF-α mRNA levels,"TNF-α mRNA [3]; 10 mM, 30 minutes post-exposure, Jurkat",began increasing
same,TNF-α mRNA levels,"TNF-α mRNA [3]; 10 mM, 60 minutes post-exposure, Jurkat",control levels
same,TNF-α mRNA levels compared to the levels of control,"TNF-α mRNA [3]; 10 mM, within 10 minutes of exposure, Jurkat",50%
same,reduction of mRNA levels in human T cells,"TNF-α mRNA [3]; about 10 mM, 20 minutes post-treatment",≤ 75%
same,TNF-α protein signal (immunohistochemical staining) compared to control-treated cells,TNF-α protein; 24 hours incubation,lower signals
same,TNF-α protein signal (immunohistochemical staining) compared to control-treated cells,TNF-α protein; 48 hours incubation,lower signals
same,TLR-2 transcript levels,TLR-2,reduced
same,TLR-3 transcript levels,TLR-3,reduced
same,TLR-4 transcript levels,TLR-4,reduced
same,TLR-7 transcript levels,TLR-7,reduced
same,bacteria in growth medium,[4],decreased
same,bacteria in growth medium,[5],decreased
same,bacteria in growth medium,[6],decreased
same,growth of fungi,fungi,does not affect
same,cell death,mouse macrophages,No alterations
CN1CC(=O)N=C1N [creatinine],Edema,[7],decreased
lipopolysaccharide [reference compound],TNF-α mRNA expression,"TNF-α mRNA [1]; positive control, RAW 264.7, not shown in graphs",significant increase
same,TNF-α mRNA expression,"TNF-α mRNA [2]; positive control, THP-1, not shown in graphs",significant increase
same,TNF-α mRNA expression,"TNF-α mRNA [3]; positive control, Jurkat, not shown in graphs",significant increase
